The values that follow come from ChEMBL document CHEMBL1123182, “Synthesis and biological properties of chitin synthetase inhibitors resistant to cellular peptidases” (J Med Chem, 1986).

The target in experiment [1] is T1, Chitin synthase 1 (Candida albicans, UniProt P23316). The experiment can be described thus: Compound was tested for the inhibitory activity against chitin synthetase.
For experiment [2], the target named is Chitin synthase 1 (Candida albicans) (UniProt P23316). In words: Compound was tested for the inhibitory activity against chitin synthetase in the permeabilised cell assay.
For experiment [3] the target is unchanged. In words: Compound was tested for the inhibitory activity against chitin synthetase in the mixed membrane preparation from Candida albicans. The format is cell membranes.
For experiment [4], the system named is Candida albicans. The experiment can be described thus: Millimolar concentration of the lowest concentration that clearly inhibited the cell growth of Candida albicans was determined. The format is functional.
Experiment [5] concerns Candida albicans. The experiment can be described thus: Compound was tested for the inhibitory activity against Candida albicans cell growth. The class given is functional.
The subject of experiment [6] is Candida albicans. The experiment can be described thus: Millimolar concentration at which some morphological effects in Candida albicans cells (about 5% of cells) was determined. The following applies: read-out: MEC. The format is functional.
In experiment [7] the test system is Candida albicans. The experiment can be described thus: Concentration at which 50% of the Candida albicans cells were not viable. The format is functional.
Experiment [8] has as its target T1, Chitin synthase 1. In words: Inhibition constant (KI) for the mmf chitin synthetase assay performed at constant inhibitor and varying substrate concentrations.

Structures are written as SMILES. In brackets after ≈: the same amount, converted by molar mass.

T1 sequence (P23316 whole entry): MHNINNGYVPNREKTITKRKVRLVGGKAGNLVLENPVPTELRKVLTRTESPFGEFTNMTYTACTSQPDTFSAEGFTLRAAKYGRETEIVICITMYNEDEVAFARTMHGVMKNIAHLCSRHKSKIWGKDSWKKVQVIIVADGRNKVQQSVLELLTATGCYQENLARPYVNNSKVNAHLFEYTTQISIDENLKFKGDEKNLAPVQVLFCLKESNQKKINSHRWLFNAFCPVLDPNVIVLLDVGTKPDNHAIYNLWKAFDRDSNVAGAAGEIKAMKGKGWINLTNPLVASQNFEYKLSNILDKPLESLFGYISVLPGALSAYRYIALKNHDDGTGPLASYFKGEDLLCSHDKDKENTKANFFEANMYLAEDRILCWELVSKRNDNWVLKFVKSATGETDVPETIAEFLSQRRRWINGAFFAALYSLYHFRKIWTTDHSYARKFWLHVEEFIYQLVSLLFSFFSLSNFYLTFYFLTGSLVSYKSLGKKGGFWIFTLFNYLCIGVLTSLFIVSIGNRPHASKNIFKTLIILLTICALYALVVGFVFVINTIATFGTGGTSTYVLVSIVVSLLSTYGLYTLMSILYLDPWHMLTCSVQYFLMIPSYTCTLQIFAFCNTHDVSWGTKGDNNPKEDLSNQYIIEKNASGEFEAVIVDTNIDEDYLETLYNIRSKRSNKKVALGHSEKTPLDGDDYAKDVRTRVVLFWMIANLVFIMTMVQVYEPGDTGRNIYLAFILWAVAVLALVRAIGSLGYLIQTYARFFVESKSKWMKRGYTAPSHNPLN
Chain of Chitin synthase 1 (Candida albicans) (P23316 whole entry, looked up): as the sequence (P23316 whole entry) above

Broadly, the Ki is a dissociation constant, usually derived from enzyme kinetics or from competition with a known ligand. Low readings indicate a stronger hold on the target, high ones a looser hold on the target. Usually MIC stands for the smallest concentration in the dilution series that meets the test's criterion for growth inhibition. With `CCCNC(CC(C)C)C(=O)NC(C(=O)O)[C@H]1O[C@@H](n2ccc(=O)[nH]c2=O)[C@H](O)[C@@H]1O` (some centres not stated), at Chitin synthase 1 [1], the Ki was determined as 145 µM. Also, the ID50 in experiment [2] and in experiment [3] was above 100 µM in each case. Further, the MIC in the experiment on Candida albicans [4] was 2500 µM (≈ 1110 µg/mL). In the experiment with Candida albicans [5], this molecule registered a Viability above 1 mM. In the experiment with Candida albicans [6], the minimal effective concentration was above 2500 µM.

In the case of `CCCCC(N)C(=O)NC(C(N)=O)[C@H]1O[C@@H](n2ccc(=O)[nH]c2=O)[C@H](O)[C@@H]1O` (some centres not stated), the results for the ID50 in experiment [2] and in experiment [3] were above 100 µM and 200 µM, respectively. This molecule returned an MIC against Candida albicans [4] above 1000 µM. Further, the “concentration killing 50% of cells” value in the experiment on Candida albicans [7] is recorded as above 4 mM. The Ki at Chitin synthase 1 [8] worked out at 246 µM. Further, the minimal effective concentration with Candida albicans [6] is above 4000 µM.

With `NC(Cc1ccccc1)C(=O)N/C(=C/c1ccccc1)C(=O)NC(C(=O)O)[C@H]1O[C@@H](n2ccc(=O)[nH]c2=O)[C@H](O)[C@@H]1O` (some centres not stated), the Ki at Chitin synthase 1 [1] was 11.3 µM. For the same molecule, the ID50 came to 80 µM in experiment [2] and 40 µM in experiment [3]. Further, the MIC against Candida albicans [4] is above 2000 µM. Moreover, in the experiment with Candida albicans [5], the Viability was above 2 mM. The minimal effective concentration with Candida albicans [6] is above 2000 µM.

With `N[C@@H](Cc1c[nH]c2ccccc12)C(=O)NC(C(=O)O)[C@H]1O[C@@H](n2ccc(=O)[nH]c2=O)[C@H](O)[C@@H]1O` (some centres not stated), the ID50 in experiment [2] and in experiment [3] was above 100 µM in each case. The molecule also had an MIC against Candida albicans [4] above 1000 µM. In addition, the “concentration killing 50% of cells” value in the experiment with Candida albicans [7] is on record as above 4 mM. On Chitin synthase 1 [8], affinity was put at a Ki of 1060 µM. Further, the minimal effective concentration in the experiment on Candida albicans [6] was found to be 4000 µM.

Molecule `CCCCCCCC(=O)NC(Cc1ccccc1)C(=O)NC(C(=O)NC(C(=O)O)[C@H]1O[C@@H](n2cc(C(=O)O)c(=O)[nH]c2=O)[C@H](O)[C@@H]1O)C(O)C(O)COC(N)=O` (some centres not stated) yielded a Ki at Chitin synthase 1 [1] of 7.15 µM. In addition, the ID50 in experiment [2] stood at 50 µM; in experiment [3], 47.5 µM. In the experiment on Candida albicans [4], this molecule showed an MIC of 1000 µM (≈ 795 µg/mL). This molecule had a Viability in the experiment on Candida albicans [5] above 1 mM. Further, in the experiment on Candida albicans [6], the minimal effective concentration is 1000 µM.

Turning to `CCCCC(NC)C(=O)NC(C(=O)O)[C@H]1O[C@@H](n2ccc(=O)[nH]c2=O)[C@H](O)[C@@H]1O` (some centres not stated), the ID50 in experiment [2] came to 97.5 µM; in experiment [3], 120 µM. Moreover, the MIC with Candida albicans [4] is above 1000 µM. The “concentration killing 50% of cells” value in the experiment with Candida albicans [7] is listed as above 4 mM. On Chitin synthase 1 [8], the affinity, expressed as Ki, was 218 µM. The minimal effective concentration with Candida albicans [6] turned out to be 20 µM.

Take `NOC(Cc1ccccc1)C(=O)NC(C(=O)O)[C@H]1O[C@@H](n2ccc(=O)[nH]c2=O)[C@H](O)[C@@H]1O` (some centres not stated): the ID50 is above 100 µM in experiment [2] and 100 µM in experiment [3]. For the same molecule, inhibition of growth against Candida albicans [4] (MIC) required 3000 µM (≈ 1350 µg/mL). The “concentration killing 50% of cells” value with Candida albicans [7] is reported as above 3 mM. For the same molecule, the Ki at Chitin synthase 1 [8] came out at 978 µM. Also, the minimal effective concentration with Candida albicans [6] is above 3000 µM.

Consider `NC(=O)OCC(O)C(O)C(N)C(=O)NC(C(=O)O)[C@H]1O[C@@H](n2cc(C(=O)O)c(=O)[nH]c2=O)[C@H](O)[C@@H]1O` (some centres not stated), for which, in experiment [2], the ID50 is 1 µM. It took 60 µM (≈ 31.3 µg/mL) to inhibit growth against Candida albicans [4] (MIC). The “concentration killing 50% of cells” value with Candida albicans [7] stood at 1 mM. The molecule also had a Ki on Chitin synthase 1 [8] of 0.59 µM. Further, in the experiment on Candida albicans [6], the minimal effective concentration was found to be 20 µM.
